Patent US4737494A, “1,3-dithiole derivatives and pharmaceutical compositions” (priority 1984, dated 1988)

System: acute liver injury induced by carbon tetrachloride
Test: Protective effect on acute liver injury induced by carbon tetrachloride (mice, oral): plasma GPT activity and BSP retention
Assay type: in vivo, mice (ddY, male)
Conditions: 6 h before CCl4 (0.05 ml/kg p.o.); for GPT activity: plasma; for Retained BSP: plasma 30 min after BSP 75 mg/kg i.v.
Experimental: 1. Protective Effect on Acute Liver Injury Induced by Carbon Tetrachloride
A test compound was dissolved or suspended in olive oil and administered orally to mice (ddY mice, .male., 23±2 g, n=5). After 6 hours, carbon tetrachloride (0.05 ml/kg) was administered orally. 24 Hours after the administration of carbon tetrachloride, BSP (sodium sulfobromophthalein; 75 mg/kg) was administered intravenously. Thirty minutes later, the cardiac blood was collected, and GPT (glutamic-pyruvic transaminase) activity and the retention rate of BSP in the plasma were measured.

SMILES	GPT activity (1 mg/kg) [Karmen units]	Retained BSP (1 mg/kg) [µg/mL]	GPT activity (5 mg/kg) [Karmen units]	Retained BSP (5 mg/kg) [µg/mL]
CCOC(=O)C[N+](C)=c1sccs1.[O-][Cl+3]([O-])([O-])[O-] [Compound No. 1, N-(1,3-dithiol-2-ylidene)-N-methyl-N-ethoxycarbonylmethylammonium perchlorate]	3280 ± 399	53.2 ± 11.4	183 ± 74	18.4 ± 1.3
CNC(=O)C[N+](C)=c1sccs1 [Compound No. 3, N-(1,3-dithiol-2-ylidene)-N-methyl-N-(N'-methylcarbamoylmethyl)ammonium perchlorate]	3740 ± 430	67.1 ± 14.3	541 ± 101	27.1 ± 10.1
C[N+](CCC#N)=c1sccs1.[I-] [Compound No. 4, N-(1,3-dithiol-2-ylidene)-N-methyl-N-(2-cyanoethyl)ammonium iodide]	2535 ± 158	42.6 ± 2.3	543 ± 92	29.4 ± 11.1
C[N+](=c1sccs1)C1CCCCC1.[O-][Cl+3]([O-])([O-])[O-] [Compound No. 7, N-(1,3-dithiol-2-ylidene)-N-methyl-N-cyclohexylammonium perchlorate]	4920 ± 670	120.1 ± 17.1	1400 ± 77	57.1 ± 5.1
C[N+](c1ccccc1)=c1sccs1.[O-][Cl+3]([O-])([O-])[O-] [Compound No. 8, N-(1,3-dithiol-2-ylidene)-N-methyl-N-phenylammonium perchlorate]	2394 ± 193	39.3 ± 10.7	117 ± 28	11.6 ± 1.5
Cc1cccc([N+](C)=c2sccs2)c1.[O-][Cl+3]([O-])([O-])[O-] [Compound No. 9, N-(1,3-dithiol-2-ylidene)-N-methyl-N-(m-tolyl)ammonium perchlorate]	2250 ± 325	73.1 ± 14.7	191 ± 71	21.4 ± 2.1
C[N+](Cc1ccccc1)=c1sccs1.[O-][Cl+3]([O-])([O-])[O-] [Compound No. 10, N-(1,3-dithiol-2-ylidene)-N-methyl-N-benzylammonium perchlorate]	1865 ± 106	29.5 ± 6.0	108 ± 27	16.6 ± 1.6
C=CC[N+](CC=C)=c1sccs1.[O-][Cl+3]([O-])([O-])[O-] [Compound No. 12, N-(1,3-dithiol-2-ylidene)-N,N-diallylammonium perchlorate]	5438 ± 401	109.3 ± 14.8	1241 ± 103	25.4 ± 5.0
[O-][Cl+3]([O-])([O-])[O-].c1ccc(C[N+](Cc2ccccc2)=c2sccs2)cc1 [Compound No. 16, N-(1,3-dithiol-2-ylidene)-N,N-dibenzylammonium perchlorate]	4121 ± 311	107.4 ± 13.9	1017 ± 37	21.8 ± 6.0
COC(=O)CC(C(=O)OC)[N+](C)=c1sccs1.[O-][Cl+3]([O-])([O-])[O-] (stereo not shown) [Compound No. 17, N-(1,3-dithiol-2-ylidene)-N-methyl-N-(1,2-dimethoxycarbonylethyl)ammonium perchlorate]	4760 ± 298	135 ± 8.9	3883 ± 324	86 ± 11.1
CC(C)CC(C(=O)OC(C)C)[N+](C)=c1sccs1.[O-][Cl+3]([O-])([O-])[O-] (stereo not shown) [Compound No. 18, N-(1,3-dithiol-2-ylidene)-N-methyl-N-(3-methyl-1-isopropoxycarbonylbutyl)ammonium perchlorate]	4100 ± 615	106.9 ± 17.5	3250 ± 365	44.1 ± 5.2
[O-][Cl+3]([O-])([O-])[O-].c1csc(=[N+]2CCOCC2)s1 [Compound No. 26, 4-(1,3-dithiol-2-ylidene)morpholinium perchlorate]	483 ± 178	21.6 ± 2.7	113 ± 32	13.8 ± 2.5
[O-][Cl+3]([O-])([O-])[O-].c1csc(=[N+]2CCCCC2)s1 [Compound No. 34, 1-(1,3-dithiol-2-ylidene)piperidinium perchlorate]	512 ± 205	26.5 ± 8.0	116 ± 39	15.6 ± 3.0
[O-][Cl+3]([O-])([O-])[O-].c1csc(=[N+]2CCCC2)s1 [Compound No. 35, 1-(1,3-dithiol-2-ylidene)pyrrolidinium perchlorate]	4239 ± 816	101.2 ± 22.6	2472 ± 820	35.8 ± 12.4
CCOC(=O)C1CCC[N+]1=c1sccs1.[Cl-] (stereo not shown) [Compound No. 42, 1-(1,3-dithiol-2-ylidene)-2-ethoxycarbonyl pyrrolidinium chloride]	1673 ± 214	53.1 ± 6.3	231 ± 43	21.4 ± 3.5
NC(=O)C1CCC[N+]1=c1sccs1.[I-] (stereo not shown) [Compound No. 44, 1-(1,3-dithiol-2-ylidene)-2-carbamoylpyrrolidinium iodide]	6311 ± 867	134.7 ± 21.7	5213 ± 716	119.4 ± 11.8
CCCCCCC1CCC[N+]1=c1sccs1.[O-][Cl+3]([O-])([O-])[O-] (stereo not shown) [Compound No. 45, 1-(1,3-dithiol-2-ylidene)-2-(n-hexyl)pyrrolidinium perchlorate]	4264 ± 521	110 ± 20.5	1072 ± 282	76 ± 6.3
[O-][Cl+3]([O-])([O-])[O-].c1ccc(C2CCC[N+]2=c2sccs2)cc1 (stereo not shown) [Compound No. 46, 1-(1,3-dithiol-2-ylidene)-2-phenylpyrrolidinium perchlorate]	3978 ± 627	101 ± 17.4	1040 ± 121	69 ± 7.1
CC1CCC[N+](=c2sccs2)C1.[O-][Cl+3]([O-])([O-])[O-] (stereo not shown) [Compound No. 52, 1-(1,3-dithiol-2-ylidene)-3-methylpiperidinium perchlorate]	2391 ± 325	87.1 ± 13.4	138 ± 18	17.8 ± 4.9
CC1CC[N+](=c2sccs2)CC1.[O-][Cl+3]([O-])([O-])[O-] (stereo not shown) [Compound No. 53, 1-(1,3-dithiol-2-ylidene)-4-methylpiperidinium perchlorate]	1843 ± 162	70.0 ± 19.3	193 ± 81	16.9 ± 3.1
O=C(O)C1CC[N+](=c2sccs2)CC1.[O-][Cl+3]([O-])([O-])[O-] (stereo not shown) [Compound No. 57, 1-(1,3-dithiol-2-ylidene)-4-carboxypiperidinium perchlorate]	3735 ± 374	101.1 ± 20.0	2922 ± 247	90.1 ± 14.7
NC(=O)C1CC[N+](=c2sccs2)CC1.[I-] (stereo not shown) [Compound No. 58, 1-(1,3-dithiol-2-ylidene)-4-carbamoylpiperidinium iodide]	3266 ± 245	98.1 ± 21.0	1151 ± 181	41.5 ± 7.1
N#CC1CC[N+](=c2sccs2)CC1.[O-][Cl+3]([O-])([O-])[O-] (stereo not shown) [Compound No. 59, 1-(1,3-dithiol-2-ylidene)-4-cyanopiperidinium perchlorate]	2991 ± 382	110.1 ± 27.3	763 ± 118	49.1 ± 8.1
OC1CC[N+](=c2sccs2)CC1.[O-][Cl+3]([O-])([O-])[O-] (stereo not shown) [Compound No. 60, 1-(1,3-dithiol-2-ylidene)-4-hydroxypiperidinium perchlorate]	1321 ± 197	63.4 ± 10.9	131 ± 10	19.1 ± 2.1
CC1CC(C)C[N+](=c2sccs2)C1.[I-] (stereo not shown) [Compound No. 67, 1-(1,3-dithiol-2-ylidene)-3,5-dimethylpiperidinium iodide]	2718 ± 431	111.4 ± 17.1	372 ± 27	21.3 ± 4.0
